Data taken from article PMC10520196 (Clinical Pharmacokinetics, 2023).

Experiments:
Observed C24 in P1093 = format: in vivo; conditions: human, plasma, oral, Geometric mean C24, P1093, ≥ 6 to < 10 kg
[1] = Final pediatric population PK model; format: in vivo, human
[2] = maturation half-time, fixed; based on paracetamol; ref Anderson et al.; cited from earlier work
[3] = healthy adult volunteers, same dose; cited from earlier work
[4] = final PopPK model, reference 70-kg subject

concentration at 24 h (Observed C24 in P1093; 10 mg, < 6 months of age, DT 10 mg QD): 1820 ng/mL
concentration at 24 h (Observed C24 in P1093; 10 mg, ≥ 6 months of age, DT 10 mg QD): 735 ng/mL
concentration at 24 h (Observed C24 in P1093; 15 mg, ≥ 6 months of age, DT 15 mg QD): 908 ng/mL
V/F~WT ([1]; effect of weight on V/F (exponent)): 0.556
KA~DT and granules ([1]; final PopPK model, factor on KA of FCT): 2.04
KA, FCT ([1]; final PopPK model, film-coated tablet): 0.854 h^–1
CL/F [1, 4]: 1.03 L/h
V/F [1, 4]: 13.6 L
ω^2CL point estimate ([1]; inter-individual variability of CL/F, variance): 0.0863
ω^2KA point estimate ([1]; inter-individual variability of KA, variance): 0.762
ω^2V point estimate ([1]; inter-individual variability of V/F, variance): 0.0698
ω^2IOV,KA point estimate ([1]; inter-occasion variability of KA, variance): 0.610
F, fasted DT/granules ([1]; relative bioavailability): 1.53
F, without regard to food, FCT ([1]; relative bioavailability): 1.10
F, fasted FCT ([1]; relative bioavailability, reference, fixed): 1.00
Structure (SMILES): C[C@@H]1CCO[C@H]2Cn3cc(C(=O)NCc4ccc(F)cc4F)c(=O)c(O)c3C(=O)N12 [dolutegravir, Dolutegravir]
KA (DT and granules) ([1]; calculated as 0.854 × 2.04): KA (DT and granules) = 1.74 (95% CI 1.20–2.28), calculated as 0.854 × 2.04 (95% CI 0.854 × 1.41–0.854 × 2.67)
TM50 [2]: 52.2 FIX week
Relative bioavailability of DT vs granules [3]: comparable
